Experimental data as given in patent US10137141B2, “Treatment regimen tiacumicin compound” (priority 2014, dated 2018).
≈ marks a conversion by molar mass, not a printed value. Entries after “also recorded” stand apart in the source; their conditions may differ. Like-named read-outs stand apart in the source and are kept apart here.

Experiments:
[1] = test system: C. difficile infections (CDI); conditions: cited from earlier work
[2] = test system: CDI; experiment: Expected clinical outcome of the new dosing regimens (proposed clinical study); assay type: in vivo, patients; conditions: expected benefit of the dosing regimens of the invention
[3] = test system: Bifidobacteria; conditions: both dosing regimens (Model A and Model B); cited from earlier work
[4] = some previous fidaxomicin dosing regimens; cited from earlier work
[5] = Antimicrobial concentration (bioassay) in the in vitro gut model
Description: (§1) The continuous culture system consisted of three vessels, V1, V2, and V3, with respective operating volumes of 0.22, 0.32, and 0.32 L (FIG. 1). Temperature (37° C.) and pH were automatically controlled to reflect the proximal-distal colon. Culture pH in the three vessels was 5.5, 6.2, and 6.8, respectively. Each fermentor was magnetically stirred and maintained under an atmosphere of CO2. The growth medium was continuously sparged with O2-free N2 and fed by peristaltic pump to V1. V1 sequentially supplied V2 and V3 via a series of weirs. […] Retention time was calculated as the reciprocal of dilution rate. […] Minimum doubling times of bacteria were calculated as 0.693/D, where D is the dilution rate (h−1) for each culture vessel. […] Steady-state conditions were assessed by monitoring short-chain fatty acid (SCFA) formation. […]

[6] = test system: enterococci; experiment: In vitro gut model: gut microflora by selective culture, enterococci; assay type: cell-based; conditions: both dosing regimens (Model C and D)
Description: (§2) Two tests in a validated three-stage compound continuous culture system (Freeman J, O'Neill F J, Wilcox M H. The effects of cefotaxime and desacetylcefotaxime upon Clostridium difficile proliferation and toxin production in a triple-stage chemostat model of the human gut. J Antimicrob Chemother 2003; 52: 96-102; Baines S D, Freeman J, Wilcox M H. Effects of piperacillin/tazobactam on Clostridium difficile growth and toxin production in a human gut model. J Antimicrob Chemother 2005; 55: 974-82) were run in parallel. Models were inoculated with pooled faecal slurry (10% in anaerobic distilled water) from healthy volunteers (n=5, age >60 yrs).
as §1, with “CO2.” for “CO2. The growth medium was continuously sparged with O2-free N2 and fed by peristaltic pump to V1. V1 sequentially supplied V2 and V3 via a series of weirs.”

[7] = test system: C. difficile PCR ribotype 027; conditions: cited from earlier work
[8] = test system: C. difficile; experiment: MIC against C. difficile; assay type: cell-based, Clostridium difficile; conditions: Clostridioides difficile
[9] = test system: Clostridium species; conditions: in vitro; cited from earlier work
[10] = test system: CDI; conditions: two Phase III trials; cited from earlier work
[11] = test system: Bifidobacteria; experiment: In vitro gut model: gut microflora by selective culture, Bifidobacteria; assay type: cell-based
Description: (§3) Two 3-stage chemostat gut models were inoculated with pooled faeces (n=5). […] Models were then treated with fidaxomicin (200 mg/L bd) for 20 or 5 d to achieve in vivo gut levels. 5 days post treatment in the short course model, a further 5 days fidaxomicin pulse was given. CD total viable counts (TVC), spore counts (SP), toxin titres (CYT), and gut bacteria were measured throughout. Data were also compared with results for FDX given for 7 days (model 7).
as §2, with “Models were inoculated with pooled faecal slurry (10% in anaerobic distilled water) from healthy volunteers (n=5, age >60 yrs).” left out
The continuous culture system consisted of three vessels, V1, V2, and V3, with respective operating volumes of 0.22, 0.32, and 0.32 L (FIG. 1). […] Retention time was calculated as the reciprocal of dilution rate. […] Minimum doubling times of bacteria were calculated as 0.693/D, where D is the dilution rate (h−1) for each culture vessel. […] Steady-state conditions were assessed by monitoring short-chain fatty acid (SCFA) formation. […]

[12] = test system: C. difficile PCR ribotype 027; experiment: In vitro gut model of CDI (three-stage chemostat): C. difficile viable counts, spore counts, cytotoxin titre; assay type: cell-based, Clostridium difficile; conditions: both tapered dosing regimens (Model C and D)
Description: as §3, with “Models were then treated with fidaxomicin (200 mg/L bd) for 20 or 5 d to achieve in vivo gut levels.” left out
as §2
The continuous culture system consisted of three vessels, V1, V2, and V3, with respective operating volumes of 0.22, 0.32, and 0.32 L (FIG. 1). Temperature (37° C.) and pH were automatically controlled to reflect the proximal-distal colon. Culture pH in the three vessels was 5.5, 6.2, and 6.8, respectively. Each fermentor was magnetically stirred and maintained under an atmosphere of CO2. The growth medium was continuously sparged with O2-free N2 and fed by peristaltic pump to V1. V1 sequentially supplied V2 and V3 via a series of weirs. The culture medium consisted of the following constituents (g liter-1) in distilled water: starch (BDH Ltd.), 5.0; pectin (citrus), 2.0; guar gum, 1.0; mucin (porcine gastric type III), 4.0; xylan (oatspelt), 2.0; arabinogalactan (larch wood), 2.0; inulin, 1.0; casein (BDH Ltd.), 3.0; peptone water, 5.0; tryptone, 5.0; bile salts No. 3, 0.4; yeast extract, 4.5; FeSO4 z 7H2O, 0.005; NaCl, 4.5; KCl, 4.5; KH2PO4, 0.5; MgSO4 z 7H2O, 1.25; CaCl2 z 6H2O, 0.15; NaHCO3, 1.5; cysteine, 0.8; hemin, 0.05; Tween 80, 1.0 The system was initially operated at a retention time (R) of 27.1 h (experiment 1), followed by an increase to R=66.7 h (experiment 2). Retention time was calculated as the reciprocal of dilution rate. System retention constitutes the sum of individual R values in each fermentor. Minimum doubling times of bacteria were calculated as 0.693/D, where D is the dilution rate (h−1) for each culture vessel. Each fermentor was inoculated with 100 ml of a fresh 10% (w/v) fecal slurry from a healthy, nonmethane producing donor. […] Steady-state conditions were assessed by monitoring short-chain fatty acid (SCFA) formation. […]

[13] = oral administration; cited from earlier work
[14] = low solubility, low permeability; cited from earlier work
[15] = Model A: fidaxomicin 200 mg/L bd for 20 d

CN[C@H](CC(C)C)C(=O)N[C@H]1C(=O)N[C@@H](CC(N)=O)C(=O)N[C@H]2C(=O)N[C@H]3C(=O)N[C@H](C(=O)N[C@H](C(=O)O)c4cc(O)cc(O)c4-c4cc3ccc4O)[C@H](O)c3ccc(c(Cl)c3)Oc3cc2cc(c3O[C@@H]2O[C@H](CO)[C@@H](O)[C@H](O)[C@H]2O[C@H]2C[C@](C)(N)[C@H](O)[C@H](C)O2)Oc2ccc(cc2Cl)[C@H]1O [vancomycin]
Average symptom-free interval (SFI) ([1]; following a vancomycin taper): 37 days

CCc1c(Cl)c(O)c(Cl)c(O)c1C(=O)O[C@H]1[C@H](O)[C@H](OC)[C@H](OC/C2=C\C=C\C[C@H](O)/C(C)=C/[C@H](CC)[C@@H](O[C@@H]3OC(C)(C)[C@@H](OC(=O)C(C)C)[C@H](O)[C@@H]3O)/C(C)=C/C(C)=C/C[C@@H]([C@@H](C)O)OC2=O)O[C@@H]1C [fidaxomicin, 3-[[[6-deoxy-4-O-(3,5-dichloro-2-ethyl-4,6-dihydroxybenzoyl)-2-O-methyl-β-D-mannopyranosyl]oxy]methyl]-12(R)-[[6-deoxy-5-C-methyl-4-O-(2-methyl-1-oxopropyl)-β-D-lyxo-hexopyranosyl]oxy]-11(S)-ethyl-8(S)-hydroxy-18(S)-(1(R)-hydroxyethyl)-9,13,15-trimethyloxacyclooctadeca-3,5,9,13,15-pentaene-2-one]
Courses resulting in treatment success ([1]; 18 courses of fidaxomicin in 14 patients (FID-TX, FID-CH, FID-TP)): 18 courses
RCDI ([1]; FID-CH: 10-day fidaxomicin chaser, 8 courses, excluding RCDI due to antimicrobial exposure): 25%
Average symptom-free interval (SFI) ([1]; FID-CH): 240 days
RCDI ([1]; FID-TP: taper 200 mg daily 7 days then 200 mg QOD 7-26 days, 7 courses): no RCDI
Average symptom-free interval (SFI) ([1]; FID-TP): 150 days
RCDI episodes ([1]; FID-TX: 200 mg BID for 10 days, 3 courses): 66%
Average symptom-free interval (SFI) ([1]; FID-TX): 73 days
Recurrence [2]: below 5%
Decrease of bifidobacteria to below LOD [3]: 6-8 log10 cfu/mL
Recovery of bifidobacteria [3]: did not recover
Persistence of fidaxomicin [4]: 20 mg/L
Persistence of fidaxomicin at supra MIC level ([5]; dosing regimens i and ii): 2 to 5 mg/L
Peak fidaxomicin concentration ([5]; human): ~100 mg/L
Declines in enterococci [6]: 2-5 log10 cfu/mL
CD TVC reduced to the limit of detection (LOD) by day [7, 15]: ≤ 5 days
CYT (toxin titre) reduced to the limit of detection (LOD) by day [7, 15]: ≤ 7 days
Reduction of CD TVCs ([7]; Model B: 200 mg/L bd 5 d, still detectable on day 5 of treatment): ~4 log10 cfu/mL
TVC and SP after second 5 days fidaxomicin pulse ([7]; Model B: 5 d, 5 d rest, further 5 d pulse): decreased TVC and SP to LOD
MIC [8]: 0.25 mg/L (≈ 0.236 µM)
MIC values compared with optically pure S-isomer of tiacumicin B and other tiacumicin related compounds [9]: lower MIC values
Initial clinical cure of CDI versus vancomycin [10]: non-inferiority
Reduction of recurrence and sustained clinical response versus vancomycin [10]: superiority
Declines in Bifidobacteria to limit of detection ([11]; both dosing regimens (Model C and D)): 6-8 log10 cfu/mL
Recovery of Bifidobacteria populations ([11]; both models (C and D), by the end of the experiment): recovered to near pre-installation counts; also recorded: recovered to close to pre-fidaxomicin levels
Reduction of C. difficile viable counts to below the level of detection [12]: ~6 log10 cfu/mL
Reduction of spore counts to below the level of detection [12]: ~4 log10 cfu/mL
Reduction of toxin titres to below the level of detection [12]: 3 RU
Time to reduce C. difficile viable counts, spore counts and toxin titres to below the level of detection [12]: < 3 days
Absorption from the intestinal tract [13]: poorly absorbed
BCS (Biopharmaceutics Classification System) class [14]: Class IV
